Key:
[1] = system: Choline Deficient High Fat Diet (CDHFD) model of fatty liver; experiment: Picrosirius red staining (PSR) of liver tissue, rat choline deficient high fat diet (CDHFD) model; format: in vivo, Male Wistar Han Rats; conditions: for fibrosis as measured by PSR, decrease relative to vehicle: vs vehicle group 2
Protocol: Compound A and Compound B were studied in a Choline Deficient High Fat Diet (CDHFD) model as described below. Rats enrolled in this study were first fed a choline deficient high fat diet (CDHFD) for 42 days prior to test article administration Animals were then split into treatment groups 1-8 and test article was administered as detailed in Table 1 for 42 days. [table] Liver tissue obtained at the end of the study was subjected to picrosirius red staining (PSR) was assessed according to standard techniques. Liver hydroxyproline content was measured from cryopowdered liver tissue. Chloramine-T was used to oxidize the free hydroxyproline for the production of a pyrrole. Addition of Ehrlich's reagent results in the formation of a chromophore that can be measured at 550 nm on a spectramax plate reader. FIG. 2 plots the PSR (% area) for control (treatment group 1), start and end for the vehicle (treatment group 2), COT inhibitor (Compound A referred to as TPL2i, 100 mg/Kg QD (low dose), 100 mg/Kg BID (high dose)), ACC inhibitor (Compound B referred to as ACCi, 10 mg/kg QD), and coadministration of Compound B with Compound A (treatment groups 5 and 6). Data in FIG. 2 is based on all animals in the treatment group. In FIG. 2, a higher value for PSR % area is reflective of a higher level of fibrosis.

[2] = system: Choline Deficient High Fat Diet (CDHFD) model of fatty liver; experiment: Liver hydroxyproline (OH-P) content, rat CDHFD model; format: in vivo, Male Wistar Han Rats; conditions: 100 mg/Kg PO BID (treatment group 4), 42 days, vs vehicle group 2
Protocol: (§1) Compound A and Compound B were studied in a Choline Deficient High Fat Diet (CDHFD) model as described below. Rats enrolled in this study were first fed a choline deficient high fat diet (CDHFD) for 42 days prior to test article administration Animals were then split into treatment groups 1-8 and test article was administered as detailed in Table 1 for 42 days.
Liver tissue obtained at the end of the study was subjected to picrosirius red staining (PSR) was assessed according to standard techniques. Liver hydroxyproline content was measured from cryopowdered liver tissue. Chloramine-T was used to oxidize the free hydroxyproline for the production of a pyrrole. Addition of Ehrlich's reagent results in the formation of a chromophore that can be measured at 550 nm on a spectramax plate reader.
FIG. 3 plots liver hydroxyproline (OH—P) content from liver tissue for control (treatment group 1), start and end for the vehicle (treatment group 2), COT inhibitor (Compound A referred to as TPL2i, low dose=100 mg/Kg QD, high dose=100 mg/Kg BID), ACC inhibitor (Compound B referred to as ACCi, 10 mg/kg QD), and coadministration of Compound B with Compound A (treatment group 5 (TPL2i low dose+ACCi) and treatment group 6 (TPL2i high dose+ACCi)). Liver hydroxyproline (OH—P) content was calculated from liver tissue samples. […]

liver cytokine levels [3] = experiment: Liver cytokine levels by ELISA from liver lysates, rat CDHFD model; format: in vivo, Male Wistar Han Rats; conditions: TPL2i = group 4, TPL2i+ACCi = group 6, vs vehicle
Protocol: as §1

[4] = Body weight, Gubra amylin NASH (GAN) mouse model; format: in vivo, mice; conditions: 60 mg/kg PO BID, after 84 days of dosing
Protocol: (§2) The effect of COT inhibitor Compound A, ACC inhibitor Compound B, Cenicriviroc (CVC), and the combination of Compound A and Compound B in the Gubra amylin NASH mouse model (GAN) was determined.
FIG. 5 plots the body weight of treatment group 1 (wt), vehicle (treatment group 2), COT inhibitor (Compound A, 60 mg/kg BID), ACC inhibitor (Compound B, 10 mg/Kg QD), and combination of Compound A and Compound B (treatment group 4) in the Gubra amylin NASH (GAN) mouse model. Cenicriviroc (CVC) used as a control (100 mg/Kg QD).

[5] = Whole body fat mass by ECHO MRI, GAN mouse model; format: in vivo, mice; conditions: 60 mg/kg PO BID, after 84 days of dosing
Protocol: as §2
(§3) FIG. 6 plots the percent fat mass of treatment group 1 (wt), vehicle (treatment group 2), COT inhibitor (Compound A, treatment group 3), ACC inhibitor (Compound B, treatment group 5), and combination of Compound A and Compound B (treatment group 4) in the Gubra amylin NASH (GAN) mouse model. Cenicriviroc (CVC) used as a control (treatment group 6). Fat mass was calculated by ECHO MRI.

[6] = system: Gubra amylin NASH (GAN) mouse model; experiment: Picrosirius red staining (PSR) of liver tissue, GAN mouse model; format: in vivo, mice
Protocol: as §2
as §3, with “FIG. 8” for “FIG. 6”, “plots liver fibrosis levels based on” for “plots the”, “percent PSR for” for “percent fat mass of”, “6).” for “6). Fat mass was calculated by ECHO MRI.”

[7] = system: Gubra amylin NASH (GAN) mouse model; experiment: Alpha-smooth muscle actin (aSMA) IHC on liver tissue, GAN mouse model; format: in vivo, mice; conditions: treatment group 3 (60 mg/kg BID) vs vehicle group 2, % area IHC
Protocol: as §2
FIG. 9 plots the […] (aSMA) levels from liver tissue of treatment group 1 (wt), vehicle (treatment group 2), COT inhibitor (Compound A, treatment group 3), ACC inhibitor (Compound B, treatment group 5), and combination of Compound A and Compound B (treatment group 4) in the Gubra amylin NASH (GAN) mouse model. Cenicriviroc (CVC) used as a control (treatment group 6). Alpha-smooth muscle actin (aSMA) levels were calculated from % area of alpha-SMA antibody staining on liver tissue (IHC).

[8] = system: Gubra amylin NASH (GAN) mouse model; experiment: NAFLD activity score from H&E stained liver sections, GAN mouse model; format: in vivo, mice; conditions: 60 mg/kg BID
Protocol: The effect of COT inhibitor Compound A, ACC inhibitor Compound B, Cenicriviroc (CVC), and the combination of Compound A and Compound B in the Gubra amylin NASH mouse model (GAN) was determined. [table] FIG. 10 plots NAFLD activity score of Compound A (60 mg/kg BID), Compound B (10 mg/Kg QD), CVC (100 mg/Kg QD), and the combination Compound A and Compound B in from liver tissue the Gubra amylin NASH mouse model. CVC=Cenicriviroc, used as a control (100 mg/Kg QD). Individual components comprising the NAFLD score includes hepatocellular ballooning (FIG. 11A), lobular inflammation (FIG. 11B), and steatosis score (FIG. 11C). NAFLD activity score was determined by scoring of steatosis, inflammation, and hepatocyte ballooning from hematoxylin and eosin stained liver sections.

[9] = system: Gubra amylin NASH (GAN) mouse model; experiment: Liver total cholesterol, GAN mouse model; format: in vivo, mice; conditions: treatment group 3 (60 mg/kg BID)
Protocol: as §2
FIG. 12 plots the liver total cholesterol levels for treatment group 1 (wt), vehicle (treatment group 2), COT inhibitor (Compound A, treatment group 3), ACC inhibitor (Compound B, treatment group 5), and combination of Compound A and Compound B (treatment group 4) in the Gubra amylin NASH (GAN) mouse model. Cenicriviroc (CVC) used as a control (treatment group 6). Total cholesterol levels were calculated from was measured using commercial kits (Roche Diagnostics) on the cobas c 501 autoanalyzer according to the manufacturer's instructions.

liver cytokine levels [10] = experiment: Liver cytokine levels by ELISA from liver lysates, GAN mouse model; format: in vivo, mice
Protocol: as §2

## COc1ccccc1[C@H](Cn1c(=O)n(C(C)(C)C(=O)O)c(=O)c2c(C)c(-c3ncco3)sc21)O[C@H]1CC[C@@H](O)CC1 [Compound B]
[1]; 10 mg/kg PO QD (treatment group 7), 42 days
  PSR reduction: 33%

## Cc1nc(F)ccc1[C@H](Nc1cc(Cl)c2ncc(C#N)c(NCC(C)(C)C)c2c1)c1cn(C2(C(F)F)CC2)nn1 [Compound A]
[1]; 100 mg/Kg PO BID (treatment group 4, TPL2i high dose), 42 days
  fibrosis as measured by PSR, decrease relative to vehicle: 55%
[1]; 100 mg/Kg PO QD (treatment group 3, TPL2i low dose), 42 days
  fibrosis as measured by PSR, decrease relative to vehicle: 41%
[1]; treatment group 4 (100 mg/Kg BID) vs vehicle group 2
  liver fibrosis in PSR stained liver tissue (FIG. 1) compared to vehicle: less liver fibrosis
[2]
  reduction in liver hydroxyproline compared to vehicle: 38%
Liver cytokine levels [3]
  liver IL-1b level: statistically significant decreases
  liver IL-10 level: statistically significant decreases
  liver IL-18 level: statistically significant decreases
  liver MIP1-α level: statistically significant decreases
[4]
  body weight decrease: 16%
[5]
  fat mass decrease: 31%
[6]; 60 mg/kg PO BID (treatment group 3) vs vehicle group 2
  fibrosis measured by PSR, decrease compared to vehicle: 46%
[6]; BID treatment
  PSR relative to Compound B alone: reduced PSR
[7]
  Alpha-smooth muscle actin (aSMA) levels, reduction compared to vehicle: 41%
[8]
  NAFLD activity score at the end of the study compared to vehicle: more animals had a lower NAFLD activity score
[9]
  Liver total cholesterol reduction: 40%
Liver cytokine levels [10]; treatment group 3 vs vehicle
  liver IL-1β level: statistically significant decreases
  liver KC/GRO level: statistically significant decreases
  liver MCP-1 level: statistically significant decreases
  liver TNF-α level: statistically significant decreases

## CCCCOCCOc1ccc(-c2ccc3c(c2)/C=C(/C(=O)Nc2ccc([S@@+]([O-])Cc4cncn4CCC)cc2)CCCN3CC(C)C)cc1 [CVC, Cenicriviroc, reference compound]
Liver cytokine levels [10]; treatment group 6 (100 mg/Kg)
  liver cytokine levels: Changes in cytokine levels were not observed
